The source of these data is patent publication US9475779B2, “Substituted bicyclic dihydropyrimidinones and their use as inhibitors of neutrophil elastase activity” (priority 2014, dated 2016).

For the first assay, the target named is neutrophil elastase (Homo sapiens (Human), UniProt P08246). Kind of assay: biochemical. In kind it is biochemical. The following applies: IC50.
neutrophil elastase, sequence (P08246 whole entry, looked up): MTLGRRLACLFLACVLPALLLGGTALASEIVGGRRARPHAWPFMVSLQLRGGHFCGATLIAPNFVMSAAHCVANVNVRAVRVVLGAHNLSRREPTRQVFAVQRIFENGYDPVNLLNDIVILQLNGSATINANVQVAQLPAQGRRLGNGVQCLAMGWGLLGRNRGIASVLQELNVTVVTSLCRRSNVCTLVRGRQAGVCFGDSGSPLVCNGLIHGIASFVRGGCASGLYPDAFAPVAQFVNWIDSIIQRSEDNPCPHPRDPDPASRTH
Experimental: Human Neutrophil Elastase Assay
All other materials were of the highest grade commercially available.
The following buffers were used: Compound buffer: 100 mM Tris, 500 mM NaCl, adjusted to pH 7.5; Assay buffer: 100 mM Tris, 500 mM NaCl, adjusted to pH 7.5, containing 0.01% BSA.
Assay conditions: Test compounds were prediluted in DMSO and subsequently in compound buffer (5% DMSO final). […] After inactivation of the enzyme, fluorescence intensities were measured at 380 nm excitation and 460 nm emission wavelengths.
Each plate contains wells with a high value control (DMSO+enzyme+substrate) and wells with a low value control (DMSO+inactivated enzyme+substrate). IC50 values were estimated using a sigmoidal concentration response curve with variable slope. Means of low values were taken as 0%, means of high values as 100%.
Usually IC50 stands for the concentration that inhibits the measured activity by half. For the molecule `CCS(=O)(=O)c1cc(C#N)ccc1C1C2=C(CCC2=O)N(c2ccnc(C(F)(F)F)c2)C(=O)N1C` (single isomer, unassigned) [Example D.3A, 3-Ethanesulfonyl-4-[3-methyl-2,5-dioxo-1-(2-trifluoromethyl-pyridin-4-yl)-2,3,4,5,6,7-hexahydro-1H-cyclopentapyrimidin-4-yl]-benzonitrile], it took 2810 nM to reach half-maximal inhibition (IC50).
Molecule `CCS(=O)(=O)c1cc(C#N)ccc1C1NC(=O)N(c2cccc(C(F)F)c2)C2=C1C(=O)CC2` (single isomer, unassigned) [Example D.5B, 4-[1-(3-Difluoromethyl-phenyl)-2,5-dioxo-2,3,4,5,6,7-hexahydro-1H-cyclopentapyrimidin-4-yl]-3-ethanesulfonyl-benzonitrile] returned an IC50 of 892 nM.
The molecule `CN1C(=O)N(c2cccc(C(F)(F)F)c2)C2=C(C(=O)CC2)C1c1ccc(C#N)cc1CO` (single isomer, unassigned) [Example A.1B, 3-Hydroxymethyl-4-[3-methyl-2,5-dioxo-1-(3-trifluoromethyl-phenyl)-2,3,4,5,6,7-hexahydro-1H-cyclopentapyrimidin-4-yl]-benzonitrile] yielded a half-inhibitory concentration (IC50) of 2780 nM.
With `CCNC(=O)N1C(=O)N(c2ccnc(C(F)(F)F)c2)C2=C(C(=O)CC2)C1c1ccc(C#N)cc1S(=O)(=O)CC` (racemic) [Example D.4.1, 4-(4-cyano-2-ethanesulfonyl-phenyl)-2,5-dioxo-1-(2-trifluoromethyl-pyridin-4-yl)-1,2,4,5,6,7-hexahydro-cyclopentapyrimidine-3-carboxylic acid ethylamide], the IC50 was under 1 nM.

The assay is the same for the next values; noted with them: IC50, Neutrophil Elastase assay, substrate MeOSuc-Ala-Ala-Pro-Val-AMC.
The molecule `CN1C(=O)N(c2cccc(C(F)(F)F)c2)C2=C(C(=O)CC2)C1c1ccc(C#N)cc1S(=O)(=O)CCO` (single isomer, unassigned) [Example B.1.2A] returned an IC50 of 224 nM.

Staying with this assay, now noted: Neutrophil Elastase assay, substrate MeOSuc-Ala-Ala-Pro-Val-AMC; read-out: IC50.
Take `CN1C(=O)N(c2cncc(Cl)c2)C2=C(C(=O)CC2)C1c1ccc(C#N)cc1S(C)(=O)=O` (stereo not drawn) [D.3.4]: the IC50 was found to be 8.1 nM.
Take `CCNC(=O)N1C(=O)N(c2cncc(Cl)c2)C2=C(C(=O)CC2)C1c1ccc(C#N)cc1S(C)(=O)=O` (stereo not drawn) [D.4.9]: the 50% inhibitory concentration (IC50) was under 1 nM.
The same measure, in the same setting: next, `CCNC(=O)N1C(=O)N(c2ccnc(C(F)(F)F)c2)C2=C(C(=O)CC2)C1c1ccc(C#N)cc1S(=O)(=O)CC` (single isomer, unassigned) [Example D.4.1B, 4-(4-cyano-2-ethanesulfonyl-phenyl)-2,5-dioxo-1-(2-trifluoromethyl-pyridin-4-yl)-1,2,4,5,6,7-hexahydro-cyclopentapyrimidine-3-carboxylic acid ethylamide]: 338 nM; `CS(=O)(=O)c1cc(C#N)ccc1C1NC(=O)N(c2cncc(Br)c2)C2=C1C(=O)CC2` (stereo not drawn) [D.2.3]: 101 nM.
For `CCNC(=O)N1C(=O)N(c2cncc(C(F)(F)F)c2)C2=C(C(=O)CC2)C1c1ccc(C#N)cc1S(C)(=O)=O` (stereo not drawn) [D.4.3], the IC50 was under 1 nM.
Same read-out and setting: next, `CCNC(=O)N1C(=O)N(c2cccc(C(F)(F)F)c2)C2=C(C(=O)CC2)C1c1ccc(C#N)cc1[S+](C)[O-]` (stereo not drawn) [Example C.3, 4-(4-Cyano-2-methanesulfinyl-phenyl)-2,5-dioxo-1-(3-trifluoromethyl-phenyl)-1,2,4,5,6,7-hexahydro-cyclopentapyrimidine-3-carboxylic acid ethylamide]: under 1 nM; `CN1C(=O)N(c2cncc(C(F)(F)F)c2)C2=C(C(=O)CC2)C1c1ccc(C#N)cc1S(C)(=O)=O` (stereo not drawn) [D.3.1]: 8.8 nM; `CS(=O)(=O)c1cc(C#N)ccc1C1NC(=O)N(c2cncc(C(F)(F)F)c2)C2=C1C(=O)CC2` (stereo not drawn) [D.2.1]: 60 nM.
For the molecule `CNC(=O)N1C(=O)N(c2cncc(Br)c2)C2=C(C(=O)CC2)C1c1ccc(C#N)cc1S(C)(=O)=O` (stereo not drawn) [D.4.6], the IC50 amounted to 1.2 nM.
As to `CS(=O)(=O)c1cc(C#N)ccc1C1NC(=O)N(c2cncc(Cl)c2)C2=C1C(=O)CC2` (stereo not drawn) [D.2.4], the IC50 is 103 nM.
Still for that read-out and setting: the same measure for `CN1C(=O)N(c2cccc(C(F)(F)F)c2)C2=C(C(=O)CC2)C1c1ccc(C#N)cc1[S+](C)[O-]` (single isomer, unassigned) [Example C.1A, 3-Methanesulfinyl-4-[3-methyl-2,5-dioxo-1-(3-trifluoromethyl-phenyl)-2,3,4,5,6,7-hexahydro-1H-cyclopentapyrimidin-4-yl]-benzonitrile]: 1820 nM.
As to `CCS(=O)(=O)c1cc(C#N)ccc1C1C2=C(CCC2=O)N(c2ccnc(C(F)(F)F)c2)C(=O)N1C(=O)NC` (stereo not drawn) [Example D.4, 4-(4-Cyano-2-ethanesulfonyl-phenyl)-2,5-dioxo-1-(2-trifluoromethyl-pyridin-4-yl)-1,2,4,5,6,7-hexahydro-cyclopentapyrimidine-3-carboxylic acid methylamide], the concentration for half-maximal inhibition (IC50) is under 1 nM.
Same read-out and setting: the same measure for `CS(=O)(=O)c1cc(C#N)ccc1C1C2=C(CCC2=O)N(c2cccc(C(F)(F)F)c2)C(=O)N1CCO` (stereo not drawn) [Example E.1, 4-[3-(2-Hydroxy-ethyl)-2,5-dioxo-1-(3-trifluoromethyl-phenyl)-2,3,4,5,6,7-hexahydro-1H-cyclopentapyrimidin-4-yl]-3-methanesulfonyl-benzonitrile]: under 1 nM; for `CCNC(=O)N1C(=O)N(c2cncc(Br)c2)C2=C(C(=O)CC2)C1c1ccc(C#N)cc1S(C)(=O)=O` (stereo not drawn) [D.4.7]: under 1 nM; for `CN1C(=O)N(c2cccc(C(F)(F)F)c2)C2=C(C(=O)CC2)C1c1ccc(C#N)cc1[S+](C)[O-]` (single isomer, unassigned) [Example C.2B, 3-Methanesulfinyl-4-[3-methyl-2,5-dioxo-1-(3-trifluoromethyl-phenyl)-2,3,4,5,6,7-hexahydro-1H-cyclopentapyrimidin-4-yl]-benzonitrile]: 13 nM.
With `COCCS(=O)(=O)c1cc(C#N)ccc1C1NC(=O)N(c2cccc(C(F)(F)F)c2)C2=C1C(=O)CC2` (stereo not drawn) [B.1.1], the IC50 came out at 5.7 nM.
As for `CCS(=O)(=O)c1cc(C#N)ccc1C1NC(=O)N(c2ccnc(C(F)(F)F)c2)C2=C1C(=O)CC2` (stereo not drawn) [Example D.2, 4-[2,5-Dioxo-1-(2-trifluoromethyl-pyridin-4-yl)-2,3,4,5,6,7-hexahydro-1H-cyclopentapyrimidin-4-yl]-3-ethanesulfonyl-benzonitrile], the IC50 is 24 nM.
On to `COCCS(=O)(=O)c1cc(C#N)ccc1C1C2=C(CCC2=O)N(c2cccc(C(F)(F)F)c2)C(=O)N1C` (stereo not drawn) [B.1.4], for which the IC50 is under 1 nM.
In the case of `CN1C(=O)N(c2cncc(Br)c2)C2=C(C(=O)CC2)C1c1ccc(C#N)cc1S(C)(=O)=O` (stereo not drawn) [D.3.3], the IC50 came out at 13 nM.
Turning to `CS(=O)(=O)c1cc(C#N)ccc1C1NC(=O)N(c2cc(C(F)(F)F)ccn2)C2=C1C(=O)CC2` (stereo not drawn) [D.2.2], the IC50 was 65 nM.
For the molecule `CNC(=O)N1C(=O)N(c2cncc(C(F)(F)F)c2)C2=C(C(=O)CC2)C1c1ccc(C#N)cc1S(C)(=O)=O` (stereo not drawn) [D.4.2], the IC50 is under 1 nM.

The assay is the same for the next values; noted with them: read-out: IC50.
As for `CN1C(=O)N(c2cc(C(F)(F)F)ccn2)C2=C(C(=O)CC2)C1c1ccc(C#N)cc1S(C)(=O)=O` (stereo not drawn) [D.3.2], the IC50 was 9.5 nM.
As for `CN1C(=O)N(c2cccc(C(F)(F)F)c2)C2=C(C(=O)CC2)C1c1ccc(C#N)cc1CO` (stereo not drawn) [Example A.1, 3-Hydroxymethyl-4-[3-methyl-2,5-dioxo-1-(3-trifluoromethyl-phenyl)-2,3,4,5,6,7-hexahydro-1H-cyclopentapyrimidin-4-yl]-benzonitrile], the IC50 was 1.6 nM.
For `CC[S+]([O-])c1cc(C#N)ccc1C1C2=C(CCC2=O)N(c2cccc(C(F)(F)F)c2)C(=O)N1C(=O)NC` (single isomer, unassigned) [Example C.6.1, 4-(4-Cyano-2-ethanesulfinyl-phenyl)-2,5-dioxo-1-(3-trifluoromethyl-phenyl)-1,2,4,5,6,7-hexahydro-cyclopentapyrimidine-3-carboxylic acid methylamide], the concentration for half-maximal inhibition (IC50) was under 1 nM.
The same measure, in the same setting: the same measure for `CC[S+]([O-])c1cc(C#N)ccc1C1C2=C(CCC2=O)N(c2cccc(C(F)(F)F)c2)C(=O)N1C(=O)NC` (single isomer, unassigned) [Example C.6.2, 4-(4-Cyano-2-ethanesulfinyl-phenyl)-2,5-dioxo-1-(3-trifluoromethyl-phenyl)-1,2,4,5,6,7-hexahydro-cyclopentapyrimidine-3-carboxylic acid methylamide]: under 1 nM.
For the molecule `CC[S+]([O-])c1cc(C#N)ccc1C1NC(=O)N(c2cccc(C(F)(F)F)c2)C2=C1C(=O)CC2` (single isomer, unassigned) [Example C.4.1, 4-[2,5-Dioxo-1-(3-trifluoromethyl-phenyl)-2,3,4,5,6,7-hexahydro-1H-cyclopentapyrimidin-4-yl]-3-ethanesulfinyl-benzonitrile], the IC50 is 5.2 nM.
For `CCS(=O)(=O)c1cc(C#N)ccc1C1C2=C(CCC2=O)N(c2cccc(C(F)F)c2)C(=O)N1C(=O)NC` (stereo not drawn) [Example D.7, 4-(4-Cyano-2-ethanesulfonyl-phenyl)-1-(3-difluoromethyl-phenyl)-2,5-dioxo-1,2,4,5,6,7-hexahydro-cyclopentapyrimidine-3-carboxylic acid methylamide], the IC50 is under 1 nM.
Turning to `CC[S+]([O-])c1cc(C#N)ccc1C1NC(=O)N(c2cccc(C(F)(F)F)c2)C2=C1C(=O)CC2` (single isomer, unassigned) [Example C.4.2, 4-[2,5-Dioxo-1-(3-trifluoromethyl-phenyl)-2,3,4,5,6,7-hexahydro-1H-cyclopentapyrimidin-4-yl]-3-ethanesulfinyl-benzonitrile], the IC50 worked out at 8.9 nM.
As to `CCS(=O)(=O)c1cc(C#N)ccc1C1NC(=O)N(c2cccc(C(F)F)c2)C2=C1C(=O)CC2` (racemic) [Example D.5, 4-[1-(3-Difluoromethyl-phenyl)-2,5-dioxo-2,3,4,5,6,7-hexahydro-1H-cyclopentapyrimidin-4-yl]-3-ethanesulfonyl-benzonitrile], the IC50 stood at 5.5 nM.
For `CCS(=O)(=O)c1cc(C#N)ccc1C1C2=C(CCC2=O)N(c2ccnc(C(F)(F)F)c2)C(=O)N1C` (racemic) [Example D.3, 3-Ethanesulfonyl-4-[3-methyl-2,5-dioxo-1-(2-trifluoromethyl-pyridin-4-yl)-2,3,4,5,6,7-hexahydro-1H-cyclopentapyrimidin-4-yl]-benzonitrile], the IC50 came to 4 nM.
As to `CNC(=O)N1C(=O)N(c2cncc(Cl)c2)C2=C(C(=O)CC2)C1c1ccc(C#N)cc1S(C)(=O)=O` (stereo not drawn) [D.4.8], the IC50 is under 1 nM.
